Assay results: article PMC5048095, “Agroindustrial Wastes as Alternative for Lipase Production by Candida viswanathii under Solid-State Cultivation: Purification, Biochemical Properties, and Its Potential for Poultry Fat Hydrolysis” (Enzyme Research, 2016)

Test system: T1, purified C. viswanathii lipase
T1 construct: native extracellular lipase from solid-state culture, Octyl Sepharose purified
Assay: p-nitrophenol release at […] nm, Lineweaver-Burk plot
Type: biochemical, Candida viswanathii
Conditions: 0.0 to 1.0 mM p-NPP; pH and temperature of the kinetic assay not given; free enzyme

CCCCCCCCCCCCCCCC(=O)Oc1ccc([N+](=O)[O-])cc1 [p-NPP, p-nitrophenyl palmitate]
Km: 120 µM
